In publication PMC9290507, “Rh^II‐Catalyzed De‐symmetrization of Ethane‐1,2‐dithiol and Propane‐1,3‐dithiol Yields Metallo‐β‐lactamase Inhibitors” (Chemmedchem, 2021):

Key:
[1] = tested on: E. coli VIM‐1 (T2544); test: Intrinsic antimicrobial activity (MIC, CLSI microdilution), E. coli VIM-1; type: cell-based; conditions: Escherichia coli
Method: (§1) Minimal inhibitory concentrations (MICs) of imipenem monohydrate (Sigma‐Aldrich)±compound 3 a, 3 o, or 3 s against transformed E. coli strains producing NDM‐1 or VIM‐1 were determined according to microdilution method established by Clinical and Laboratory Standards Institute (CLSI).^20 The checkerboard assay was performed to test for synergy in vitro. The microtiter‐plates were set up with serial doubling dilutions of compound 3 a, 3 o, or 3 s (2‐128 mg/L) and imipenem (0.125‐128 mg/L).

[2] = molecular target: T1, NDM‐1 (Klebsiella pneumoniae, UniProt C7C422); test: Fluorescence-based enzyme activity assay (Fluorocillin), NDM-1; type: biochemical; conditions: for Effect of added zinc ions on inhibitory activity (NDM-1): 10 μM compound, additional 100 μM ZnCl2 in assay buffer
T1 construct: made in house
Method: (§2) In order to investigate the structure‐activity relationships of the dithiol library, we measured the inhibitory activity of 3 a–x in a fluorescence‐based enzyme activity assay (Table 1). Two relevant β‐lactamase isoforms, NDM‐1 and VIM‐1 were selected for in vitro assays. The fluorogenic substrate fluorocillin[15] was prepared according to literature and its conversion was monitored as described previously.[6] In general, a linear relationship between the potency of 3 a–x towards both enzymes could be observed, however, inhibitory potency towards VIM‐1 was almost tenfold higher (Figure 3). A very clear preference for the propane‐1,3‐dithiol over ethane‐1,2‐dithiol compounds could be observed from matched molecular pairs.
(§3) Activity assays for MBLs were performed at room temperature in black polystyrol 96well plates (Corning, Corning, NY, USA) using dicefalotinodifluorofluorescein (Fluorocillin) as a substrate. Proteins were diluted in assay buffer (HEPES 50 mM, pH 7.5 containing 0.01 %Triton X‐100), with final protein concentrations of NDM‐1: 3 nM, or VIM‐1: 4 nM. Samples were supplemented with an equimolar amount of ZnCl2. An amount of 1 μL of compounds 3 a–3 x at different concentrations was incubated with 89 μL of enzyme in assay buffer. After an incubation period of 30 min at room temperature, 10 μL of Fluorocillin substrate was added to yield the final assay volume of 100 μL. Final concentration of DMSO was 1 %. The fluorescence emitted by the fluorescent product difluorofluorescein was monitored every 45 s for 30 cycles using a Tecan fluorescent plate reader (Infinite 200; excitation at 495 nm and emission at 525 nm) and was compared with a standard curve. The rate of the enzymatic reaction was obtained by dividing the quantity of the fluorescent product (RFU) by time (min). Negative controls were measured in the absence of enzyme, whereas the positive controls were measured in the presence of enzyme and in the absence of inhibitors. The inhibitory effect of each substance was measured in triplicate in three independent experiments. IC50 values were calculated using data obtained from measurements with at least eight different inhibitor concentrations, applying a sigmoidal dose–response (variable slope with four parameters) equation using GraphPad Prism 5 (GraphPad Software, La Jolla, CA, USA) software. In order to investigate the inhibitory activity of 3 a, 3 o, or 3 s in the presence of a high Zn^2+ concentration, assay buffer containing an additional 100 μM ZnCl2 was used. The assay was performed as described above with NDM‐1 or VIM‐1 and 10 μM of 3 a, 3 o, or 3 s.

[3] = molecular target: T2, VIM‐1 (Pseudomonas aeruginosa, UniProt A0A0F7KYQ8); test: Fluorescence-based enzyme activity assay (Fluorocillin), VIM-1; type: biochemical; conditions: for Effect of added zinc ions on inhibitory activity (VIM-1): 10 μM compound, additional 100 μM ZnCl2 in assay buffer
T2 construct: made in house
Method: as §2, §3

[4] = tested on: E. coli NDM‐1 (T2359); test: Checkerboard synergy assay with imipenem, E. coli NDM-1; type: cell-based; conditions: for Imipenem MIC: E. coli NDM-1 (T2359)
Method: (§4) To investigate this, the MIC of imipenem or combined with various concentrations of compound 3a, 3o, or 3 s was determined against E. coli transformants producing NDM‐1 or VIM‐1 (Table 3 and 4).
as §1

[5] = molecular target: T3, VIM‐2 (Escherichia coli, UniProt Q5U7L7); test: Kd determination using isothermal titration calorimetry; type: binding; conditions: ITC, 250 μM compound into 50 μM VIM-2, 25 °C
T3 construct: made in house
Method: The next step was the investigation of the binding thermodynamics of 3 a, 3 o, and 3 s. For these experiments we used a closely related enzyme VIM‐2 which is an isoform of VIM‐1 and can be recombinantly expressed in very high concentrations, suitable tor isothermal titration calorimetry (ITC) experiments (Figure 6).
VIM‐2 expression and purification was published elsewhere.[19] Before the measurement the VIM‐2 protein was dialyzed against 500 times the volume of buffer (50 mM Tris, 500 mM NaCl, 5 % (v/v) glycerol with a pH=8) using a dialysis membrane with a 3.5 kDa MWCO. For the measurements the compounds 3 a, 3 o, or 3 s, respectively, were diluted using the dialyses buffer to a final concentration of 250 μM containing a final DMSO concentration of 1 %. The VIM‐2 protein was diluted to a final concentration of 50 μM, supplemented with 1 % DMSO using the dialysis buffer and pure DMSO. For the control measurements dialysis buffer was supplemented with pure DMSO to a final concentration of 1 %. The measurements were performed using an “Affinity ITC” (TA‐Instruments) in reversed mode, with a stir rate of 75 rpm and a temperature of 25 °C. The VIM‐2 was placed in the cell and the respective compound in the syringe. For blank measurements either the protein or compound dilution were exchanged with buffer containing 1 % DMSO. For the measurements of 3 a and 3 s one time 0.5 μl was injected followed by 50 injections of 2 μl with a spacing of 240 s. 3 o was measured with one injection of 0.5 μl followed by 35 injections of 2 μl with a spacing of 240 s. The data were analyzed using the “NanoAnalyze Data Analysis” software (version 3.10.0; TA‐Instruments).

[6] = tested on: E. coli NDM‐1 (T2359); test: Intrinsic antimicrobial activity (MIC, CLSI microdilution), E. coli NDM-1; type: cell-based; conditions: for MIC: Escherichia coli; for Intrinsic antimicrobial activity: compound alone, E. coli transformants producing NDM-1 or VIM-1 (Table 2)
Method: as §1

[7] = tested on: E. coli VIM‐1 (T2544); test: Checkerboard synergy assay with imipenem, E. coli VIM-1; type: cell-based; conditions: for Imipenem MIC: E. coli VIM-1 (T2544)
Method: as §4, §1

T1 sequence (C7C422 29-270, looked up, species assumed): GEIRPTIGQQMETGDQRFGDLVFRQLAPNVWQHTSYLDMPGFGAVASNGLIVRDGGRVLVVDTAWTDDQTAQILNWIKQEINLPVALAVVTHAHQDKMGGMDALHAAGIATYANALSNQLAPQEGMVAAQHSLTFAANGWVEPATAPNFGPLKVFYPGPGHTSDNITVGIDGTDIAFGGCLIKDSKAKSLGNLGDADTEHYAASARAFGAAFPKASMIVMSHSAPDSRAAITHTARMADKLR

Structure (SMILES)	MIC [1] [µg/mL]	IC50 [2] [nM]	Effect of added zinc ions on inhibitory activity (NDM-1) [2]	IC50 [3] [nM]	Effect of added zinc ions on inhibitory activity (VIM-1) [3]	Imipenem MIC ([4]; +2 μg/ml compound) [µg/mL]	Imipenem MIC ([4]; +4 μg/ml compound) [µg/mL]	Imipenem MIC ([4]; +8 μg/ml compound) [µg/mL]	Imipenem MIC ([4]; +16 μg/ml compound) [µg/mL]	Imipenem MIC ([4]; +32 μg/ml compound) [µg/mL]	Imipenem MIC ([4]; +64 μg/ml compound) [µg/mL]	Imipenem MIC ([4]; +128 μg/ml compound) [µg/mL]	Kd ([5]; inset of Figure 6) [nM]	MIC [6] [µg/mL]	Intrinsic antimicrobial activity [6]	Imipenem MIC ([7]; +2 μg/ml compound) [µg/mL]	Imipenem MIC ([7]; +4 μg/ml compound) [µg/mL]	Imipenem MIC ([7]; +8 μg/ml compound) [µg/mL]	Imipenem MIC ([7]; +16 μg/ml compound) [µg/mL]	Imipenem MIC ([7]; +32 μg/ml compound) [µg/mL]	further results
O=C1CCCC1SCCCS (stereo not drawn) [3 a, 2‐((3‐Mercaptopropyl)thio)cyclopentanone]	> 512	480 ± 70	does not impair the inhibitory activity	170 ± 40	does not impair the inhibitory activity	128	128	128	64	64	64	32	878	> 512	no intrinsic antimicrobial activity	32	32	16	16	16	Kd [5]: 880 nM; Imipenem MIC ([7]; +64 μg/ml compound): 16 µg/mL; Imipenem MIC ([7]; +128 μg/ml compound): 8 µg/mL
O=C1C(SCCCS)CCN1c1nccs1 (stereo not drawn) [3 s, 3‐((3‐Mercaptopropyl)thio)‐1‐(thiazol‐2‐yl)pyrrolidin‐2‐one]	> 512	390 ± 50	does not impair the inhibitory activity	40 ± 10	does not impair the inhibitory activity	128	128	64	64	64	32	16	166	> 512	no intrinsic antimicrobial activity	32	16	16	16	8	Reduction of the MIC of imipenem ([4]; NDM-1 producing bacteria, maximal reduction): up to 8 fold; ΔH [5]: -6.45 kcal/mol; Imipenem MIC ([7]; +64 μg/ml compound): 4 µg/mL; Imipenem MIC ([7]; +128 μg/ml compound): 2 µg/mL; Reduction of the MIC of imipenem ([7]; VIM-1 producing bacteria, maximal reduction): ≤ 32 fold
